Experiments:
[1] = tested on: mouse; assay: Acute toxicity in the mouse; type: in vivo; details: acute toxicity, 24 hours
Description: (§1) The values relate to a duration of activity over a period of 24 hours: […]

[2] = tested on: rats; assay: "Pole Climbing" Test (neuroleptic properties; blocking of conditioned and unconditioned reaction); type: in vivo, rat; details: for Quotient ED10 (blocking of the unconditioned reaction)/ED50 (blocking of the conditioned reaction) / ED50: rats; for Quotient ED10 (blocking of the unconditioned reaction)/ED50 (blocking of the conditioned reaction): p.o., higher quotient = greater selectivity of the neuroleptic action; for ED50: Rattus norvegicus, po, pole climbing, conditioned impulse (acoustic signal)
Description: The neuroleptic properties of the foregoing derivatives were determined numerically on the basis of the following test, i.e., the "pole climbing" test.
This test provides information about the behavior reaction of rats. Rats are trained to avoid, by climbing up a vertical pole in the test chamber, an electrical impulse--unconditioned impulse--released via the wire-latticed floor some seconds after an acoustic signal--conditioned impulse--.
The blocking of the conditioned reaction is designated by the parameter ED50 (mg/kg p.o.) and the blocking of the unconditioned reaction is designated by the parameter ED10 (mg/kg p.o.).
The parameter ED50 --blocking of the conditioned reaction--provides a measure of the neuroleptic activity strength of the derivative under investigation since, with falling value, the neuroleptic activity strength increases.

[3] = tested on: rats; assay: Catalepsy Test; type: in vivo, rat; details: rats, intraperitoneally
Description: (§2) Representative dibenzo[b,f]thiepin derivatives of this invention were administered intraperitoneally to rats. The animals are considered to be cataleptic when the homolateral extremities remain in a crossed position for at least 10 seconds. The number of cataleptic animals is noted every 30 minutes for 6 hours.

[4] = Acute toxicity in the mouse; type: in vivo; details: in vivo, po, period of 24 hours
Description: as §1

[5] = Catalepsy Test; type: in vivo, rat; details: rat, in vivo, ip
Description: as §2

[6] = pole climbing test, chlorpromazine compared with Derivative A and Derivative B

SMILES	toxicity (in words) [1]	neuroleptic activity (in words) [2, 6]	quality (selectivity) of the neuroleptic activity (in words) [2, 6]	Quotient ED10 (blocking of the unconditioned reaction)/ED50 (blocking of the conditioned reaction) [2]	cataleptic side-effects (in words) [3]	LD50 at 24 h [4]	ED50 [2]	TD50 at 6 h [5]
CN(C)CCCN1c2ccccc2Sc2ccc(Cl)cc21 [Chlorpromazine, reference compound]	clearly inferior	somewhat stronger activity	clearly inferior	2.5	considerably greater cataleptic activity	–	–	–
C#CCN1CCN(C2Cc3ccc(OC)cc3Sc3ccc(SC)cc32)CC1.Cl.Cl (stereo not drawn) [Derivative A, 1-[10,11-Dihydro-3-methoxy-8-methylthio-dibenzo[b,f]thiepin-10-yl]-4-(2-propynyl)-piperazine dihydrochloride]	–	–	–	9	only very slight or no cataleptic side-effects	900 mg/kg	17 mg/kg	88 mg/kg
C#CCN1CCN(C2Cc3ccc(OC)cc3Sc3ccc(Cl)cc32)CC1.CS(=O)(=O)O.CS(=O)(=O)O (stereo not drawn) [Derivative B, 1-[8-Chloro-10,11-dihydro-3-methoxy-dibenzo[b,f]thiepin-10-yl]-4-(2-propynyl)-piperazine dimethanesulfonate]	–	–	–	4	only very slight or no cataleptic side-effects	750 mg/kg	25 mg/kg	> 100 mg/kg

Reference: US3996229A, “1-[10,11-Dihydro-dibenzo[b,f]-thiepin-10-yl]-4-(alkynylalkyl)-piperazines” (Hoffmann-La Roche Inc., priority 1974, dated 1976)
